Patent publication US10952966B2, “Pharmaceutical composition comprising solid dispersion of BCS class II drugs with Gelucires” (GATTEFOSSE INDIA PVT. LTD., priority 2014, dated 2021)

Assays:
[1] = pH 3 to 9; cited from earlier work
[2] = Stress degradation of plain TEL drug, stability indicating HPLC method; format: physicochemical
[3] = n-octanol: buffer pH 7.4; cited from earlier work

CCCc1nc2c(C)cc(-c3nc4ccccc4n3C)cc2n1Cc1ccc(-c2ccccc2C(=O)O)cc1 [TEL, Telmisartan]
solubility [1]: poorly soluble
reduction in area (HPLC) ([2]; 1 N NaOH at 80° C. for 8 hours): 64.4%
TEL degradation ([2]; pH modifiers employed in low concentration): no TEL degradation was observed
partition coefficient, log P [3]: 3.2
